Experiments:
[1] = tested on: subject suffering from migraine headaches
Procedure: The patch is applied to the subject's skin for 4 hours. […] The size of the patch can vary from ¼ inch by ¼ inch to 1 inch by 1 inch depending on the desired dosage to be administered.
A subject suffering from migraine headaches is administered a 2″×2″ patch with a gel concentration of 30 μg/ml over a 24 hour period.
A subject suffering from migraine headaches is administered a 2″×2″ patch with a gel concentration of 2.7 μg/ml over a 24 hour period.

[2] = tested on: subject suffering from Alzheimer's disease; settings: Example 4: transdermal patch, 10 μg/mL, applied every day for two hours a day over a month
Procedure: A subject suffering from Alzheimer's disease is treated with a transdermal patch as described herein. […] The treatment regimen occurred over the course of a month.

Cl.Cl.NCCc1c[nH]cn1 [histamine dihydrochloride]
migraine events ([1]; Example 3: transdermal patch comprising 30 μg/mL, applied to skin for 4 hours during a migraine event): treated or reduced | migraine headaches (intensity and duration) ([1]; Example 6: 2″×2″ patch, gel concentration 2.7 μg/ml, 24 hour period): reduced in both intensity and duration | Alzheimer's disease symptoms [2]: treated or reduced

Reference: patent US20230390215A1 (AgoneX Biopharmaceuticals, Inc., priority 2021, published 2023)
